Laboratory results published in patent publication US20060211744A1, “3-Pyridinecarboxamide reduces nerve degeneration” (Children's Medical Center, priority 2005, published 2006).

Assays:
Format in all cases: cell-based
[1] = tested on: cultured DRG neurons (transected axons); assay: Axon degeneration after transection of axons of cultured DRG neurons (Wallerian degeneration)
Procedure: As a first step in examining the role of NAD in Wallerian degeneration, we used an ultra-sensitive high-performance liquid chromatography (HPLC) method (Micheli and Sestini, 1997) to measure the concentration of NAD and its derivatives in degenerating axons. To do this, the acidic lysates were prepared from axonal segments collected at different time points after transecting the axons from cultured dorsal root ganglia (DRG) and resolved by reverse-phase chromatography. 2 hr after axotomy, when the transected axons were still morphologically indistinguishable from their uncut controls, NAD levels began to decrease. This NAD decrease continued over the course of degeneration, reaching about 50% at 4 hr post-axotomy, to almost undetectable levels by 6 hr after axotomy, when early morphological signs of degeneration began to develop. […] By a similar approach of alkaline extraction (Micheli and Sestini, 1997), it has been difficult for us to detect NADH in the axonal extracts, presumably due to the low abundance of NADH and the high NAD/NADH ratio reported in mammalian cells (Zhang et al., 2002, Kasischke et al., 2004, Kannurpatti et al., 2004).
To definitively determine whether preventing the local decrease in NAD levels could mediate axon protection, we employed soma-free axonal segments that have been separated from their soma as models to examine the protective effects of different pharmacological treatments. It has been shown that exogenously provided NAD, when directly added to the culture medium of DRG neurons, can be transported across the axonal membrane (Araki et al., 2004). Thus, we first examined the protective effects of different concentrations of NAD added to the culture before or after axon transection and removal of ganglia.
To further assess the local and nuclear contribution to such an NAD-dependent protection, we compared the protective effects of NAD provided at different time points. […] In this respect, our results are inconsistent with those shown by Araki et al (2004), possibly due to the different concentrations of NAD used in our studies (1-20 mM) and by Araki et al (0.1 to 1 mM).
We next attempted to explore the possible mechanisms underlying this local NAD-dependent axon protection. […] A possible explanation for this discrepancy between Araki et al (2004) and our results is the different approaches used to block Sirt1 activity. […] It is known that […], other sirturins exist and some of these proteins are localized in the cytoplasmic compartment (Onyango et al., 2002; North et al., 2003).

[2] = tested on: superior sympathetic ganglia (SCGs) and other neuronal types expressing mutant Nmnat1; assay: Axon degeneration induced by over-expression of mutant Nmnat1 in cultured neurons; conditions: no axotomy
Source text: We next examined whether decreasing neuronal NAD levels is sufficient to induce axon degeneration in intact neurons. By sequence alignment, a conserved (T/H)XGH motif has been identified in the N-terminus of all Nmnat proteins from different species (Saridakis et al., 2001). This motif likely represents a critical active site, as a mutant enzyme with a point mutation at the last amino acid (H to A) loses its catalytic activity but retains its ability to bind the nicotinamide mononucleotide (NMN) substrate (Saridakis et al., 2001). Thus, we made a mutant Nmnat1 in which the critical histidine residue at amino acid 24 in this active site motif was substituted with alanine. Since most of the NAD in mammalian cells, except for liver and kidney cells, is synthesized by recycling degraded NAD products such as nicotinamide via the salvage pathway (Shibata et al., 1991, Rongvaux et al., 2003), over-expressing this mutant Nmnat1 would be expected to sequester the limited substrates, thus decreasing cellular NAD levels. […] As a result, neurons expressing this mutant Nmnat1 developed signs of axon degeneration in the absence of axotomy, concomitant with decreases in neuronal NAD and ATP levels.
In addition, a caspase inhibitor Z-DEVD-fink also had no effect on the axon degeneration induced by this mutant Nmnat1 expression.

[3] = tested on: cultured hippocampal neurons; assay: Synaptic loss and process degeneration in cultured hippocampal neurons (dominant-negative Nmnat1)
Source text: We next attempted to examine whether decreasing NAD levels can induce similar “dying-back” axon degeneration in neurons with established synaptic connections. Such experiments might allow us to assess whether the degenerative processes in axons and other neuronal structures, including synaptic structures and dendritic processes, share similar mechanisms. To do this, we introduced both wild type and dominant negative Nmnat1 into cultured hippocampal neurons at 20 days in vitro (DIV 20), when their synaptic connections have formed and matured (Brewer et al. 1993), and examined their effects on axons as well as dendrites and synapses. As a conventional approach to visualize these neuronal structures, we also co-infected the hippocampal neurons with HSV expressing YFP. […] Moreover, neuronal NAD levels declined from 24-48 hr post-infection with viruses expressing dominant-negative Nmnat1 but not wild type Nmnat1 or YFP. Thus, we decided to focus our analysis on the first 60 hours post-infection.
To monitor changes in synaptic structures, we co-infected DIV20 neurons with HSV expressing YFP and wild type or the mutant Nmnat1, and quantified both spine density and the length and branching of axons and dendrites. As the density of dendritic spines has been considered a reliable indicator for synapse number (reviewed by Hering and Sheng, 2001), we performed high-resolution YFP imaging in neurons co-expressing YFP and Nmnat1 proteins at the indicated time points post-infection to measure the spine densities in these co-infected neurons. Dendrite length and branching patterns were analyzed using Sholl's method of regularly spaced concentric circles centered on the neuronal soma (Sholl, 1953). […]
In the experiments described above, we also performed immunostaining with antibodies against the presynaptic marker bassoon, and found a decrease of positively-stained synaptic structures. However, due to the complex morphology of the axons that makes it extremely difficult to quantify the axonal length in DIV20 hippocampal neurons, we […]. […]

`NC(=O)c1ccc[n+]([C@@H]2O[C@H](COP(=O)([O-])OP(=O)(O)OC[C@H]3O[C@@H](n4cnc5c(N)ncnc54)[C@H](O)[C@@H]3O)[C@@H](O)[C@H]2O)c1` [NAD, nicotinamide adenine dinucleotide] was tested, and the “concentrations resulting in significant protective effects on axon degeneration” value ([1]; added to culture medium of DRG neurons) was 1 to 20 mM.
With `COC(=O)CC[C@H](NC(=O)[C@H](CC(=O)OC)NC(=O)OCc1ccccc1)C(=O)N[C@H](C(=O)N[C@@H](CC(=O)OC)C(=O)CF)C(C)C` [Z-DEVD-fink] the “axon degeneration induced by mutant Nmnat1 expression” value [2] was “no effect”.
For `Oc1ccc(C=Cc2cc(O)cc(O)c2)cc1` [resveratrol], the “extent of axon degeneration” value ([1]; a range of concentrations) was “failed to observe any significant change” and the “changes (spine density, dendrites) induced by dominant-negative Nmnat1” value ([3]; DIV20 hippocampal neurons) was “did not affect the changes”.
For `CC(NC(=O)c1ccccc1/N=C/c1c(O)ccc2ccccc12)c1ccccc1` (stereo not drawn) [sirtinol], the “attenuation of the protective effect of Nmnat1 or NAD” value ([1]; sirturin inhibitors, nicotinamide at 50 μM) was “did not attenuate the protective effect” and the “dendritic spine quantity or structure, compound alone” value ([3]; from 50 to 100 μM, up to 72 hr) was “did not induce significant changes”.
